Source: ChEMBL document CHEMBL1800042, “Generation of 3,8-substituted 1,2,4-triazolopyridines as potent inhibitors of human 11β-hydroxysteroid dehydrogenase type 1 (11β-HSD-1)” (Bioorg Med Chem Lett, 2011)
Values after ≈ are worked out from the molar mass of the structure shown.

Assay: Solubility of the compound at pH 7.4
Type: physicochemical
Settings: buffer

Row | solubility | SMILES
1 | 1 µg/mL (≈ 2.83 µM) | Cc1c(Cl)cccc1Oc1cccn2c(C34CCC(CC3)C4)nnc12
2 | 1 µg/mL (≈ 2.59 µM) | Cc1c(Cl)cccc1Oc1cccn2c(C34CCC(F)(CC3)CC4)nnc12
3 | 11 µg/mL (≈ 28.7 µM) | Cc1c(Cl)cccc1Oc1cccn2c(C34CCC(O)(CC3)CC4)nnc12
